Experimental findings from ChEMBL document CHEMBL1158279, “Isolation and structure of leukotriene-A4 hydrolase inhibitor: 8(S)-amino-2(R)-methyl-7-oxononanoic acid produced by Streptomyces diastaticus” (J Nat Prod, 1996) are described below.

Assay [1] addresses T1, Leukotriene A-4 hydrolase (Homo sapiens, UniProt P09960).
T1 sequence (P09960 whole entry): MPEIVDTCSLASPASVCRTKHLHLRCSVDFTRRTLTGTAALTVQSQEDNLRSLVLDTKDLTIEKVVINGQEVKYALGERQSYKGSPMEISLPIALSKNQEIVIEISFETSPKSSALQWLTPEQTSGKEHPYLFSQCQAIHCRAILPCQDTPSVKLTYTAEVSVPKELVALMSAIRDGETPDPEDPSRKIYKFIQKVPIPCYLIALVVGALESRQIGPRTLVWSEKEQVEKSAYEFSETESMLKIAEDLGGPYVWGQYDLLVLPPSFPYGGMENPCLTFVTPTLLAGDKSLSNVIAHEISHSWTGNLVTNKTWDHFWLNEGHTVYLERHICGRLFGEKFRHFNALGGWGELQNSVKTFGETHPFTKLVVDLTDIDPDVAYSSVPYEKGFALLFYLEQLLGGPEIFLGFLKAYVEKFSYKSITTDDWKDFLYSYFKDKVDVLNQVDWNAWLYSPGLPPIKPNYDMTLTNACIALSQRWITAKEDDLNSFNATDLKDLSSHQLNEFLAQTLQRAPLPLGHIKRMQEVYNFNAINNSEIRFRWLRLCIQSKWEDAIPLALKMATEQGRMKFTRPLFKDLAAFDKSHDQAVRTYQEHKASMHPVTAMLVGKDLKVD
Kind of assay: Inhibition of human recombinant LTA4 aminopeptidase activity spectrophotometric analysis.

Assay [2] addresses T2, Angiotensin-converting enzyme (Oryctolagus cuniculus, UniProt P12822).
T2 sequence (P12822 whole entry): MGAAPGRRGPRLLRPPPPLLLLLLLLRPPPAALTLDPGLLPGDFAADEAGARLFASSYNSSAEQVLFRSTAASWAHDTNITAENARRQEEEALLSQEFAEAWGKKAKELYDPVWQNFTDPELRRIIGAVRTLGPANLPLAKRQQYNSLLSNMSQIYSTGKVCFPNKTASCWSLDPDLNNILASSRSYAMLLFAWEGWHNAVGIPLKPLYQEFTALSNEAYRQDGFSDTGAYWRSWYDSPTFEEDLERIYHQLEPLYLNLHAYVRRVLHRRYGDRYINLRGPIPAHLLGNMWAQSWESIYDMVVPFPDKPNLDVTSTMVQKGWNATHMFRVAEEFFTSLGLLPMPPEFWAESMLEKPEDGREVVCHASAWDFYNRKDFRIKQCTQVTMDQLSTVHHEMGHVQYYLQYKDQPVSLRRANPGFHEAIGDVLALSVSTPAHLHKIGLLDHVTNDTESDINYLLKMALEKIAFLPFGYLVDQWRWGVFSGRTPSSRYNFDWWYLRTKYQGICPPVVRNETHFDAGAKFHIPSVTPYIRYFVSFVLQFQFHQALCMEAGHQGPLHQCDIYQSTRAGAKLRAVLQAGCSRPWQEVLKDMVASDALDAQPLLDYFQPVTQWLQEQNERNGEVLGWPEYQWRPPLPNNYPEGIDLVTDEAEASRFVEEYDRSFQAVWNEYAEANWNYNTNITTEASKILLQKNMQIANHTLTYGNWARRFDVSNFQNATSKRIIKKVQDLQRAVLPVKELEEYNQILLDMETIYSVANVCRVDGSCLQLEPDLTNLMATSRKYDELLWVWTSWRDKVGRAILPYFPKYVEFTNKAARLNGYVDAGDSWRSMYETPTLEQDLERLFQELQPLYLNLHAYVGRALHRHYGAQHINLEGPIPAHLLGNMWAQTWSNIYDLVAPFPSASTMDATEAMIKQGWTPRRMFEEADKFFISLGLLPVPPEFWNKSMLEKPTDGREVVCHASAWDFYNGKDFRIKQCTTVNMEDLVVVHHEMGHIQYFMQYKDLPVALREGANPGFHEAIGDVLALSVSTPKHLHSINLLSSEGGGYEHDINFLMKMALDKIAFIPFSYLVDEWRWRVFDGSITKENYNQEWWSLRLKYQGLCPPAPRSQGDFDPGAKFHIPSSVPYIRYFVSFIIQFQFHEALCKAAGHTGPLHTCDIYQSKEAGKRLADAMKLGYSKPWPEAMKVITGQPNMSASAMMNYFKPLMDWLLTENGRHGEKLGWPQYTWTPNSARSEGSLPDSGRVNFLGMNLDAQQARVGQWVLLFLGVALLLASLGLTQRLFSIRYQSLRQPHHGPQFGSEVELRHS
In words: Inhibition of rabbit lung ACE.

Assay [3] deals with T1, Leukotriene A-4 hydrolase. Kind of assay: Inhibition of human recombinant LTA4 hydrolase assessed as LTB4 production after 30 mins by ELISA.
Assay [4] concerns Blood. Kind of assay: Inhibition of TxB2 production in human whole blood after 15 mins by ELISA. It is filed as functional, tissue-based. The settings on record: 0.25 h.
For assay [5], the system named is Blood. Kind of assay: Inhibition of LTB4 production in human whole blood after 15 mins by ELISA. The format is functional, tissue-based. As to conditions: 0.25 h.

For `C[C@H](N)C(=O)CCCC[C@@H](C)C(=O)O`, the half-inhibitory concentration (IC50) is 0.3 µM in assay [1]; above 100 µM in assay [2]; 0.57 µM in assay [3]; above 30 µM in assay [4]; 7 µM in assay [5].
